# Test results as given in article PMC6797481, “Identification of an allosteric binding site on the human glycine transporter, GlyT2, for bioactive lipid analgesics” (eLife, 2019).
# Legend:
# GlyT2 WT = biological target: T1, GlyT2 WT (Homo sapiens, UniProt Q9Y345); settings: read-out: Glycine EC50, glycine transport, mean ± SEM
# T1 sequence (Q9Y345 1-797): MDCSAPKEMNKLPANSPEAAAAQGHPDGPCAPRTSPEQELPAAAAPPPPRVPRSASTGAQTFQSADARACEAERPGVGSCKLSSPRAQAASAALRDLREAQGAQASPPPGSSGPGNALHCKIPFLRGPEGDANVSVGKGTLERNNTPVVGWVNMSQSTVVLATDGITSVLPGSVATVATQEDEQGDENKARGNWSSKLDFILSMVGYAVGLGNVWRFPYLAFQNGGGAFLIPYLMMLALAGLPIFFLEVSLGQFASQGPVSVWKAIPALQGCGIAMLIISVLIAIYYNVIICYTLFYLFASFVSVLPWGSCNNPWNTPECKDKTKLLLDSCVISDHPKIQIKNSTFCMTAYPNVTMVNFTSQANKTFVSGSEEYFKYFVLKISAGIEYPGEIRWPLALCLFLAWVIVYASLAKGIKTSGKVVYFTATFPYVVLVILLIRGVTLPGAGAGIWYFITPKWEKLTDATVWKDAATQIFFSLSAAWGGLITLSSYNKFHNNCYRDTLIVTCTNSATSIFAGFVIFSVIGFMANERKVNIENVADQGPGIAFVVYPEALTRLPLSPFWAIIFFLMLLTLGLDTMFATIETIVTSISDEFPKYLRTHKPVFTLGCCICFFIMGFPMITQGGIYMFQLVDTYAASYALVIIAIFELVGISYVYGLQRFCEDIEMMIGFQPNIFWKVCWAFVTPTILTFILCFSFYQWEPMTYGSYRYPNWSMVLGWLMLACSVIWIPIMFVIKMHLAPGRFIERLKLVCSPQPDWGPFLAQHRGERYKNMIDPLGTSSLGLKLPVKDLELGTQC
# Description: Human GlyT1b or GlyT2a (herein referred to as GlyT1 and GlyT2) cDNA were sub-cloned into the plasmid oocyte transcription vector (pOTV). Site-directed mutagenesis was performed using traditional PCR techniques, and sequences confirmed by the Australian Genome Research Facility (Sydney, Australia). WT and mutant plasmid DNA were linearised with SpeI (New England Biolabs (Genesearch) Arundel, Australia) and RNA transcribed by T7 RNA polymerase using the mMessagemMachine kit (Ambion, TX, USA).
# Oocytes were extracted from female Xenopus laevis frogs and detached from follicle cell containing lobes by digestion with 2 mg/mL collagenase A (Boehringer, Mannheim, Germany). Defoliculated stage V-VI oocytes were injected with 4.6 ng of cRNA encoding WT or mutant transporter (Drummond Nanoinject, Drummond Scientific Co., Broomall, PA, USA). Surgical proceedures have been approved by the University of Sydney Animal Ethics Committee (protocol 2016/970). […]
# 2–5 days following injection, glycine transport currents were measured at −60 mV using Geneclamp 500 amplifier (Axon Instruments, Foster City, CA, USA) with a Powerlab 2/20 chart recorder (ADInstruments, Sydney, Australia) and chart software (ADInstruments). All data were subsequently analysed using GraphPad Prism 7.02 (GraphPad Software, San Diego, CA). […]
# [1] = test system: rat model of neuropathic pain; design: method as in Mostyn et al., 2019; settings: ref Mostyn et al., 2019; cited from earlier work
# [2] = design: method as in Mostyn et al., 2019; settings: ref Mostyn et al., 2019; cited from earlier work
# [3] = design: method as in Mostyn et al., 2019; settings: ref Mostyn et al., 2019; cited from earlier work; remark: listed apart in the source
Compound,EC50 (GlyT2 WT),analgesia [1],side effects [1],blood brain barrier permeability [2],metabolic stability [3]
NCC(=O)O [Glycine],14.5 ± 2.6 µM,–,–,–,–
oleoyl d-Lysine,–,produces analgesia,minimal side effects,blood brain barrier permeable,metabolically stable
